Reference: patent US8592435B2, “Nitrogen-containing six-membered aromatic ring derivatives and pharmaceutical products containing the same” (Daiichi Sankyo Company, Limited, priority 2007, dated 2013)
Counter-ions that a name gives are not always drawn.

Columns and labels:
hippocampal neurons = test: Test Example 1: ability to promote axonal outgrowth; type: cell-based, Wistar rats; conditions: Hippocampal neuron, 216 h, % of control, rat hippocampal neurons, day 9, read-out: Promotion of axonal outgrowth (%); for activity at 3 µM: Compound Conc. = 3 μM; for activity at 0.3 µM: Compound Conc. = 0.3 μM
Protocol: According to the method of M. P. Mattson [M. P. Mattson, Brain Res. Rev., 13, 179, (1988)], the hippocampal region was isolated from 18-day embryos of female Wistar rats and the neurons were dispersed using the papain dissociation system. Hippocampal neuron were suspended in 5% Nu-serum+B27 supplement+Neurobasal medium at 5×10^4 cells/well/2 mL. 2 mL of the cell suspension were inoculated on a poly-D-lysine-coated 36φ dish and the neuron were incubated at 37° C. in a 5% CO2 incubator.
On day 3 of the incubation period, 1 mL of the culture medium was replaced with 1 mL of 5% Nu-serum+B27 supplement+Neurobasal medium containing 2 mM AraC. Each test compound was added to the culture on day 3 and day 7 of the incubation period. On day 9, cells were fixed in a 4% paraformaldehyde solution. The nerve axons of the fixed cells were stained with the Rabbit anti-growth-associated protein-43 polyclonal antibody and the stained cells were quantified using Kurabo neuron outgrowth-quantication software.
The ability (%) of each test compound to promote axonal outgrowth was calculated from the following equation: The ability to promote axonal outgrowth (%)=[(measurement with a compound of interest)/(measurement of control)]×100
Example Compounds shown in Table 25 were used as test compounds and were each added at concentrations of 3 μM and 0.3 μM.
Since bFGF gives a measurement of about 120 in this test, 120 is used as the threshold to determine whether a given compound has the ability to promote axonal outgrowth

[1] = tested on: mixture of human vascular endothelial cells and fibroblasts; test: Test Example 2: ability to promote angiogenesis (angiogenesis test kit KZ-1000); type: cell-based; conditions: Homo sapiens, 216 h, lumen length, % of control, day 9, read-out: Promotion of angiogenesis (%); for activity at 3 µM: Compound Conc. = 3 μM; for activity at 0.3 µM: Compound Conc. = 0.3 μM
Protocol: Using an angiogenesis test kit containing a mixture of human vascular endothelial cells and fibroblasts [KZ-1000; Kurabo], the ability of test compounds to promote angiogenesis was evaluated. Each test compound was added on days 1, 4, and 7 of the incubation period. On day 9, cells were immunostained with CD31 and photographed. Control cells were cultured under the same conditions, only without the addition of a test compound, and photographed.
The lumen length of the blood vessel was quantified from the obtained images using an angiogenesis-quantification software. The ability (%) of each test compound to promote angiogenesis was calculated from the following equation: The ability to promote angiogenesis (%)=[(measurement with a compound of interest)/(measurement of control)]×100
Example Compounds shown in Table 26 were used as test compounds.
Since bFGF gives a measurement of about 120 in this test, 120 is used as the threshold to determine whether a given compound has the ability to promote angiogenesis.

Row | SMILES | activity at 3 µM (hippocampal neurons) | activity at 3 µM [1] | activity at 0.3 µM (hippocampal neurons) | activity at 0.3 µM [1]
1 | Cc1nc(NCC(=O)N(C)C2CCN(Cc3ccccc3)CC2)nc(C)c1N [Compound 63, 2-(5-amino-4,6-dimethylpyrimidine-2-ylamino)-N-(1-benzylpiperidine-4-yl)-N-methylacetamide] | 186% |  |  | 
2 | Cc1nc(OCC(=O)N(C)C2CCN(Cc3ccc(C(N)=O)cc3)CC2)nc(C)c1N [Compound 64, 4-((4-(2-(5-amino-4,6-dimethylpyrimidine-2-yloxy)-N-methylacetamide)piperidine-1-yl)methyl)benzamide] |  | 177% | 120% | 
3 | Cc1nc(OCC(=O)N(C)C2CCN(Cc3ccc(C(F)(F)F)cc3)CC2)nc(C)c1N [Compound 69, 2-(5-amino-4,6-dimethylpyrimidine-2-yloxy)-N-methyl-N-(1-(4-(trifluoromethyl)benzyl)piperidine-4-yl)acetamide] |  |  | 172% | 161%
4 | Cc1nc(OCC(=O)N(C)C2CCN(Cc3ccc(Cl)cc3)CC2)nc(C)c1N [Compound 72, 2-(5-amino-4,6-dimethylpyrimidine-2-yloxy)-N-(1-(4-chlorobenzyl)piperidine-4-yl)-N-methylacetamide] | 141% | 142% |  | 
5 | Cc1nc(OCC(=O)N(C)C2CCN(CC(C)C)CC2)nc(C)c1N [Compound 73, 2-(5-amino-4,6-dimethylpyrimidine-2-yloxy)-N-(1-isobutylpiperidine-4-yl)-N-methylacetamide] | 131% | 139% |  | 
6 | Cc1nc(OCC(=O)N(C)C2CCN(CCc3ccccc3)CC2)nc(C)c1N [Compound 75, 2-(5-amino-4,6-dimethylpyrimidine-2-yloxy)-N-methyl-N-(1-phenetylpiperidine-4-yl)acetamide] | 125% | 150% |  | 
7 | Cc1nc(OCC(=O)N(C)C2CCN(C(=O)C3CCCCC3)CC2)nc(C)c1N [Compound 76, 2-(5-amino-4,6-dimethylpyrimidine-2-yloxy)-N-(1-(cyclohexanecarbonyl)piperidine-4-yl)-N-methylacetamide hydrochloride] | 123% | 149% |  | 
8 | CC(=O)N1CCC(N(C)C(=O)COc2nc(C)c(N)c(C)n2)CC1 [Compound 77, N-(1-acetylpiperidine-4-yl)-2-(5-amino-4,6-dimethylpyrimidine-2-yloxy)-N-methylacetamide hydrochloride] | 135% | 149% |  | 
9 | Cc1nc(OCC(=O)N(C)C2CCN(S(=O)(=O)c3ccccc3)CC2)nc(C)c1N [Compound 78, 2-(5-amino-4,6-dimethylpyrimidine-2-yloxy)-N-methyl-N-(1-(phenylsulfonyl)piperidine-4-yl)acetamide] | 130% | 144% |  | 
10 | Cc1nc(OCC(=O)N(C)C2CCN(C3CCCCC3)CC2)nc(C)c1N [Compound 79, 2-(5-amino-4,6-dimethylpyrimidine-2-yloxy)-N-(1-cyclohexylpiperidine-4-yl)-N-methylacetamide] | 123% | 133% |  | 
11 | Cc1nc(OCC(=O)N(C)C2CCN(C(=O)N3CCCCC3)CC2)nc(C)c1N [Compound 80, 2-(5-amino-4,6-dimethylpyrimidine-2-yloxy)-N-methyl-N-(1-(piperidine-1-carbonyl)piperidine-4-yl)acetamide] | 129% |  |  | 116%
12 | Cc1ccccc1CN1CCC(N(C)C(=O)COc2nc(C)c(N)c(C)n2)CC1 [Compound 81, 2-(5-amino-4,6-dimethylpyrimidine-2-yloxy)-N-methyl-N-(1-(2-methylbenzyl)piperidine-4-yl)acetamide] | 115% | 126% |  | 
13 | Cc1nc(OCC(=O)N(C)C2CCN(c3ccccc3)CC2)nc(C)c1N [Compound 82, 2-(5-amino-4,6-dimethylpyrimidine-2-yloxy)-N-methyl-N-(1-phenylpiperidine-4-yl)acetamide] | 154% | 130% |  | 
14 | COc1cccc(CN2CCC(N(C)C(=O)COc3nc(C)c(N)c(C)n3)CC2)c1 [Compound 88, 2-(5-amino-4,6-dimethylpyrimidine-2-yloxy)-N-(1-(3-methoxybenzyl)piperidine-4-yl)-N-methylacetamide hydrochloride] |  | 122% | 142% | 
15 | Cc1nc(OCC(=O)N(C)C2CCN(Cc3ccc(-c4ccccc4)cc3)CC2)nc(C)c1N [Compound 93, 2-(5-amino-4,6-dimethylpyrimidine-2-yloxy)-N-(1-(biphenyl-4-ylmethyl)piperidine-4-yl)-N-methylacetamide hydrochloride] | 143% | 138% |  | 
16 | Cc1nc(OCC(=O)N(C)C2CCNCC2)nc(C)c1N [Compound 94, 2-(5-amino-4,6-dimethylpyrimidine-2-yloxy)-N-methyl-N-(piperidine-4-yl)acetamide] | 122% |  |  | 
17 | Cc1cc(C)nc(OCC(=O)N(C)C2CCN(Cc3ccccc3)CC2)n1 [Compound 95, N-(1-benzylpiperidine-4-yl)-2-(4,6-dimethylpyrimidine-2-yloxy)-N-methylacetamide hydrochloride] | 201% | 133% |  | 
18 | Cc1nc(=O)n(CC(=O)N(C)C2CCN(Cc3ccccc3)CC2)c(C)c1N [Compound 97, 2-(5-amino-4,6-dimethyl-2-oxopyrimidine-1(2H)-yl)-N-(1-benzylpiperidine-4-yl)-N-methylacetamide] | 127% | 134% |  | 
19 | Cc1nc(OC(C)C(=O)N(C)C2CCN(CC3CC3)CC2)nc(C)c1N (stereo not shown) [Compound 98, 2-(5-amino-4,6-dimethylpyrimidine-2-yloxy)-N-(1-(cyclopropylmethyl)piperidine-4-yl)-N-methylpropanamide] | 130% |  |  | 129%
20 | Cc1nc(OCC(=O)NC2CCN(CC3CC3)CC2)nc(C)c1N [Compound 101, 2-(5-amino-4,6-dimethylpyrimidine-2-yloxy)-N-(1-(cyclopropylmethyl)piperidine-4-yl)acetamide] | 193% |  |  | 
21 | CC(C)c1nc(OCC(=O)N(C)C2CCN(Cc3ccccc3)CC2)nc(C(C)C)c1N [Compound 104, 2-(5-amino-4,6-diisopropylpyrimidine-2-yloxy)-N-(1-benzylpiperidine-4-yl)-N-methylacetamide] |  |  | 134% | 
22 | Cc1cnc(Cl)nc1OC(C)(C)C(=O)N(C)C1CCN(Cc2ccccc2)CC1 [Compound 112, N-(1-benzylpiperidine-4-yl)-2-(2-chloro-5-methylpyrimidine-4-yloxy)-N,2-dimethylpropanamide maleate] | 126% |  |  | 
23 | Cc1nc(N)nc(C)c1OCC(=O)N(C)C1CCN(Cc2ccccc2)CC1 [Compound 113, 2-(2-amino-4,6-dimethylpyrimidine-5-yloxy)-N-(1-benzylpiperidine-4-yl)-N-methylacetamide] | 144% |  |  | 
24 | CN(C(=O)COc1cncc(Cl)c1)C1CCN(Cc2ccccc2)CC1 [Compound 125, N-(1-benzylpiperidine-4-yl)-2-(5-chloropyridine-3-yloxy)-N-methylacetamide hydrochloride] |  |  | 173% | 
25 | CN(C(=O)COc1cncc(Cl)c1)C1CCN(CC2CC2)CC1 [Compound 126, 2-(5-chloropyridine-3-yloxy)-N-(1-(cyclopropylmethyl)piperidine-4-yl)-N-methylacetamide hydrochloride] | 167% |  |  | 
26 | CN(C(=O)COc1cncc(Cl)n1)C1CCN(Cc2ccccc2)CC1 [Compound 129, N-(1-benzylpiperidine-4-yl)-2-(6-chloropyrazine-2-yloxy)-N-methylacetamide hydrochloride] | 147% |  |  | 
27 | O=C(COc1ccc(Cl)nn1)N(C1CC1)C1CCN(Cc2ccccc2)CC1 [Compound 138, N-(1-benzylpiperidine-4-yl)-2-(6-chloropyridazine-3-yloxy)-N-cyclopropylacetamide] | 151% |  |  | 
28 | CN(C(=O)CNc1c(Cl)cnnc1Cl)C1CCN(Cc2ccccc2)CC1 [Compound 139, N-(1-benzylpiperidine-4-yl)-2-(3,5-dichloropyridazine-4-ylamino)-N-methylacetamide] | 143% |  |  | 
29 | COc1cnnc(Cl)c1NCC(=O)N(C)C1CCN(Cc2ccccc2)CC1 [Compound 140, N-(1-benzylpiperidine-4-yl)-2-(3-chloro-5-methoxypyridazine-4-ylamino)-N-methylacetamide] |  |  | 128% | 
